Measured values taken from ChEMBL document CHEMBL3632469, “Discovery of dihydroquinazolinone derivatives as potent, selective, and CNS-penetrant M(1) and M(4) muscarinic acetylcholine receptors agonists” (Bioorg Med Chem Lett, 2015).

Experiments:
[1] = target: T1, Muscarinic acetylcholine receptor M1 (Homo sapiens) (UniProt P11229); assay: Agonist activity at human muscarinic M1 acetylcholine receptor expressed in CHO cells assessed as calcium mobilization at 0.3 uM by FLIPR assay; type: functional, cell-based
T1 sequence (whole entry): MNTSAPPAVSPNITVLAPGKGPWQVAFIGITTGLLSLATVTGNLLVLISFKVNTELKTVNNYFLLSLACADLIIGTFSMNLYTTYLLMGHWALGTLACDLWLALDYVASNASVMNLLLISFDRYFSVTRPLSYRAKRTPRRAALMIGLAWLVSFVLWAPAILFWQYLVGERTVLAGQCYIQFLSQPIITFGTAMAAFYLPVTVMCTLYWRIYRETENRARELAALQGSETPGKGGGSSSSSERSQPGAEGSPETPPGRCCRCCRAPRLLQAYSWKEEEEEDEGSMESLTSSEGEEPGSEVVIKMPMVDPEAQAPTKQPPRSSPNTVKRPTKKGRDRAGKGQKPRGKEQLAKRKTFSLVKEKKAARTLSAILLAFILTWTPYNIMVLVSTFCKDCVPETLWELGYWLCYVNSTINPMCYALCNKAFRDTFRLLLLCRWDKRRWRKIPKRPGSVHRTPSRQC

[2] = target: Cytochrome P450 2D6 (Homo sapiens, UniProt P10635); assay: Inhibition of CYP2D6 (unknown origin); type: ADME
[3] = target: Cytochrome P450 3A4 (Homo sapiens, UniProt P08684); assay: Inhibition of CYP3A4 (unknown origin); type: ADME
[4] = Ratio of drug level in brain to blood in rat; type: ADME, tissue-based
[5] = system: Rattus norvegicus; assay: Antipsychotic-like activity in sc dosed rat assessed as inhibition of METH-induced locomotor hyperactivity; type: functional
[6] = target: Adenosine receptor A1 (Homo sapiens) (UniProt P30542); assay: Agonist activity at adenosine a1 receptor (unknown origin) expressed in CHO cells assessed as calcium mobilization at 3 uM; type: functional, cell-based
[7] = target: Adenosine receptor A3 (Homo sapiens) (UniProt P0DMS8); assay: Agonist activity at adenosine a3 receptor (unknown origin) expressed in CHO cells assessed as calcium mobilization at 3 uM; type: functional, cell-based
[8] = target: D(2) dopamine receptor (Homo sapiens) (UniProt P14416); assay: Agonist activity at dopamine D2L receptor (unknown origin) expressed in CHO cells assessed as calcium mobilization at 3 uM; type: functional, cell-based
D(2) dopamine receptor (Homo sapiens), sequence (P14416 whole entry): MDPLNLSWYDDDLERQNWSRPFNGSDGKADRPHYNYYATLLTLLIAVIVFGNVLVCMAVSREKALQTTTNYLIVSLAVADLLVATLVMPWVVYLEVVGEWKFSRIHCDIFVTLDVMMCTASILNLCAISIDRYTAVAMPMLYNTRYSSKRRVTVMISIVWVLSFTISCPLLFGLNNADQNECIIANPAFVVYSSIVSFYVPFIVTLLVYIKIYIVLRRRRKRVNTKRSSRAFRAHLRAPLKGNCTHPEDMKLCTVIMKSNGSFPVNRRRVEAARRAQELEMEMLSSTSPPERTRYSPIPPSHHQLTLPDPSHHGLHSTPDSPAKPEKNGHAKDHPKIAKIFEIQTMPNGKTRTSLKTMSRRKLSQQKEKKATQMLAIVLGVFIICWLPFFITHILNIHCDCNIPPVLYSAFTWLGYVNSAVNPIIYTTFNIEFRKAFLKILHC

[9] = target: D(2) dopamine receptor (Homo sapiens) (UniProt P14416); assay: Agonist activity at dopamine D2S receptor (unknown origin) expressed in CHO cells assessed as calcium mobilization at 3 uM; type: functional, cell-based
[10] = target: D(1B) dopamine receptor (Homo sapiens) (UniProt P21918); assay: Agonist activity at dopamine D5 receptor (unknown origin) expressed in CHO cells assessed as calcium mobilization at 3 uM; type: functional, cell-based
D(1B) dopamine receptor (Homo sapiens), sequence (P21918 whole entry): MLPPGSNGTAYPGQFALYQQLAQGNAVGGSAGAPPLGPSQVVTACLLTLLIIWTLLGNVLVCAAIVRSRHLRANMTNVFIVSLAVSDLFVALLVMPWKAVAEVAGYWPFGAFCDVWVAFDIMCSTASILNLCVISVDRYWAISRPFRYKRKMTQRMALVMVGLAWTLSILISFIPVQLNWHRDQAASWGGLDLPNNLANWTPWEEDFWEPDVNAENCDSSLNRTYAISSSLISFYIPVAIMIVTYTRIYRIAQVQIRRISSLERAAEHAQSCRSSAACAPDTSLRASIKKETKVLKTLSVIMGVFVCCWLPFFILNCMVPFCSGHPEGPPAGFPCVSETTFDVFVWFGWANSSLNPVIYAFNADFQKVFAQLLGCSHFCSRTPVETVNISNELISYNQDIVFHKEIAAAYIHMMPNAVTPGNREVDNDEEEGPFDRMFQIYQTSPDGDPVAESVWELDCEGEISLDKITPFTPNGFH

[11] = target: Histamine H2 receptor (Homo sapiens) (UniProt P25021); assay: Agonist activity at histamine H2 receptor (unknown origin) expressed in CHO cells assessed as calcium mobilization at 3 uM; type: functional, cell-based
[12] = target: Cysteinyl leukotriene receptor 1 (Homo sapiens) (UniProt Q9Y271); assay: Agonist activity at CysLT1 receptor (unknown origin) expressed in CHO cells assessed as calcium mobilization at 3 uM; type: functional, cell-based
Cysteinyl leukotriene receptor 1 (Homo sapiens), sequence (Q9Y271 whole entry): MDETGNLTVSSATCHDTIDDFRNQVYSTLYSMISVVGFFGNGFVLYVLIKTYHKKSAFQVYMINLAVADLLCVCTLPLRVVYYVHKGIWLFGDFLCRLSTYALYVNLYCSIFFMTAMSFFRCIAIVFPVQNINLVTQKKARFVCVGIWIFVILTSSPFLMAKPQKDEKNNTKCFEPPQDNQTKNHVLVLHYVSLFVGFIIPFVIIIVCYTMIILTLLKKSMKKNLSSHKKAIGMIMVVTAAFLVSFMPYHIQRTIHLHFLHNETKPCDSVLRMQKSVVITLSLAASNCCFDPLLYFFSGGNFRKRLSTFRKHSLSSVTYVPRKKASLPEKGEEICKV

[13] = target: Substance-P receptor (Homo sapiens) (UniProt P25103); assay: Agonist activity at TaCR1 receptor (unknown origin) expressed in CHO cells assessed as calcium mobilization at 3 uM; type: functional, cell-based
Substance-P receptor (Homo sapiens), sequence (P25103 whole entry): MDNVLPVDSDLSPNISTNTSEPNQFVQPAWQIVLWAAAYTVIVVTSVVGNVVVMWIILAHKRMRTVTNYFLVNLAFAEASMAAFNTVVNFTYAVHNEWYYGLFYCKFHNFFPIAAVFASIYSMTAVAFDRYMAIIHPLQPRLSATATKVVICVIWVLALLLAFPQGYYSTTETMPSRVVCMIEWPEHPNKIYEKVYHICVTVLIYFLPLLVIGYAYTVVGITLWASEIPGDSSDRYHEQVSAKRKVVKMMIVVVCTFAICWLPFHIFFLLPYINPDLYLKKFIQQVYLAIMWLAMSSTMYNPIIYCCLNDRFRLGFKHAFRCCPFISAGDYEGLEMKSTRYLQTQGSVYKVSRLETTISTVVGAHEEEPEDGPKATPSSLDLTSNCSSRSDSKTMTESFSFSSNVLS

[14] = target: 5-hydroxytryptamine receptor 2B (Homo sapiens) (UniProt P41595); assay: Agonist activity at 5-HT2B receptor (unknown origin) expressed in CHO cells assessed as calcium mobilization at 3 uM; type: functional, cell-based
5-hydroxytryptamine receptor 2B (Homo sapiens), sequence (P41595 whole entry): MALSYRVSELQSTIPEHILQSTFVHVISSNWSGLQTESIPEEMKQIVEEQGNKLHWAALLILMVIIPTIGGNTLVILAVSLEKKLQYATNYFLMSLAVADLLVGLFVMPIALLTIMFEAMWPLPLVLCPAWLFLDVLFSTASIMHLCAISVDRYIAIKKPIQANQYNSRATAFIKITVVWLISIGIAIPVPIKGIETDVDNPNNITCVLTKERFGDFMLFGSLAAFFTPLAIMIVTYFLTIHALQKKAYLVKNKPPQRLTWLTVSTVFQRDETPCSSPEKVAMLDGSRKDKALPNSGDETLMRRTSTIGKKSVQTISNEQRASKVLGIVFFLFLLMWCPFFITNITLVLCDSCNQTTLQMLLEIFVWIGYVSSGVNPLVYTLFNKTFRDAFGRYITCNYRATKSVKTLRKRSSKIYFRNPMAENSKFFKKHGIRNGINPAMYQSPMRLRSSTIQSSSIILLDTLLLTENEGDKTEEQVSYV

[15] = target: 5-hydroxytryptamine receptor 2C (Homo sapiens) (UniProt P28335); assay: Agonist activity at 5-HT2C receptor (unknown origin) expressed in CHO cells assessed as calcium mobilization at 3 uM; type: functional, cell-based
5-hydroxytryptamine receptor 2C (Homo sapiens), sequence (P28335 whole entry): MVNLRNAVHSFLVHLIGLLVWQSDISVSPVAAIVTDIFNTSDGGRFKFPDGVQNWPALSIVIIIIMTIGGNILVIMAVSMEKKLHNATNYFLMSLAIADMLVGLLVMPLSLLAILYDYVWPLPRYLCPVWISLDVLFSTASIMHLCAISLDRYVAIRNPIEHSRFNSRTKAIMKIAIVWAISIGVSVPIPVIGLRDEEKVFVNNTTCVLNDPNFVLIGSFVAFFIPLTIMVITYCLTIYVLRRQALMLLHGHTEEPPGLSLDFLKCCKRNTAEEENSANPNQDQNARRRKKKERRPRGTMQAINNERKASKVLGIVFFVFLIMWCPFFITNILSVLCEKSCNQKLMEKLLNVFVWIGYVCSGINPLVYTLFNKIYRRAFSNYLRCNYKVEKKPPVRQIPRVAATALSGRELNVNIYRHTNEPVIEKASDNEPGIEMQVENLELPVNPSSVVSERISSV

[16] = target: 5-hydroxytryptamine receptor 4 (Homo sapiens) (UniProt Q13639); assay: Agonist activity at 5-HT4B receptor (unknown origin) expressed in CHO cells assessed as calcium mobilization at 3 uM; type: functional, cell-based
[17] = target: 5-hydroxytryptamine receptor 6 (Homo sapiens) (UniProt P50406); assay: Agonist activity at 5-HT6 receptor (unknown origin) expressed in CHO cells assessed as calcium mobilization at 3 uM; type: functional, cell-based
[18] = target: 5-hydroxytryptamine receptor 7 (Homo sapiens) (UniProt P34969); assay: Agonist activity at 5-HT7B receptor (unknown origin) expressed in CHO cells assessed as calcium mobilization at 3 uM; type: functional, cell-based
5-hydroxytryptamine receptor 7 (Homo sapiens), sequence (P34969 whole entry): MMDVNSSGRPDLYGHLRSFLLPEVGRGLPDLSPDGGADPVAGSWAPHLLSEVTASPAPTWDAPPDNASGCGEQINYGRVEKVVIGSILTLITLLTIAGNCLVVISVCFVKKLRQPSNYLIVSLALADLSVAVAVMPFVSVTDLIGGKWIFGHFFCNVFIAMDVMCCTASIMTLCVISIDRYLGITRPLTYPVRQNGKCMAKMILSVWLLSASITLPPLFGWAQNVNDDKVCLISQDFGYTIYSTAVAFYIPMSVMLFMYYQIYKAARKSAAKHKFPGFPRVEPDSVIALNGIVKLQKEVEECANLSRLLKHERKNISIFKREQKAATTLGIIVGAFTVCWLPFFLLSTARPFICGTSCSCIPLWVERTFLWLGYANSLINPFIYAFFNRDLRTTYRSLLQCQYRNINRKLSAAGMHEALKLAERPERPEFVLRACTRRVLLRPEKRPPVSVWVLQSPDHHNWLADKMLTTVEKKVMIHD

[19] = target: Adenosine receptor A2a (Homo sapiens) (UniProt P29274); assay: Antagonist activity at adenosine a2a receptor (unknown origin) expressed in CHO cells assessed as calcium mobilization at 3 uM; type: functional, cell-based
[20] = target: Alpha-2A adrenergic receptor (Homo sapiens) (UniProt P08913); assay: Antagonist activity at adrenergic a2a receptor (unknown origin) expressed in CHO cells assessed as calcium mobilization at 3 uM; type: functional, cell-based
[21] = target: Beta-1 adrenergic receptor (Homo sapiens) (UniProt P08588); assay: Antagonist activity at adrenergic beta1 receptor (unknown origin) expressed in CHO cells assessed as calcium mobilization at 3 uM; type: functional, cell-based
Beta-1 adrenergic receptor (Homo sapiens), sequence (P08588 whole entry, looked up): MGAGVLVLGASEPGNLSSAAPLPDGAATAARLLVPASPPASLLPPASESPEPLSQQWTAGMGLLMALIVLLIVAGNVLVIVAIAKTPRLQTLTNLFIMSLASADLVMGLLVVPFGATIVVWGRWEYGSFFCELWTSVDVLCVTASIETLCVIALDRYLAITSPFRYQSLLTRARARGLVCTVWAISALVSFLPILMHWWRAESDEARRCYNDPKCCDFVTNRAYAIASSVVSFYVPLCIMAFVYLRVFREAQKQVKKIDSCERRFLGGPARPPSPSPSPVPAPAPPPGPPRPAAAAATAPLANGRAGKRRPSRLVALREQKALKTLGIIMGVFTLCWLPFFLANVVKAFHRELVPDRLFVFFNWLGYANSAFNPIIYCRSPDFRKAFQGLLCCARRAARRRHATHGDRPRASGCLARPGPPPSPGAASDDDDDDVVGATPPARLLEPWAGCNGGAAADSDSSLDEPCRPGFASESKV

[22] = target: D(2) dopamine receptor (Homo sapiens) (UniProt P14416); assay: Antagonist activity at dopamine D2L receptor (unknown origin) expressed in CHO cells assessed as calcium mobilization at 3 uM; type: functional, cell-based
[23] = system: CHO; assay: Antagonist activity at GaBaB receptor (unknown origin) expressed in CHO cells assessed as calcium mobilization at 3 uM; type: cell-based; conditions: Homo sapiens
[24] = target: Histamine H1 receptor (Homo sapiens) (UniProt P35367); assay: Antagonist activity at histamine H1 receptor (unknown origin) expressed in CHO cells assessed as calcium mobilization at 3 uM; type: functional, cell-based
[25] = target: Cysteinyl leukotriene receptor 1 (Homo sapiens) (UniProt Q9Y271); assay: Antagonist activity at CysLT1 receptor (unknown origin) expressed in CHO cells assessed as calcium mobilization at 3 uM; type: functional, cell-based
[26] = target: Cysteinyl leukotriene receptor 2 (Homo sapiens) (UniProt Q9NS75); assay: Antagonist activity at CysLT2 receptor (unknown origin) expressed in CHO cells assessed as calcium mobilization at 3 uM; type: functional, cell-based
Cysteinyl leukotriene receptor 2 (Homo sapiens), sequence (Q9NS75 whole entry): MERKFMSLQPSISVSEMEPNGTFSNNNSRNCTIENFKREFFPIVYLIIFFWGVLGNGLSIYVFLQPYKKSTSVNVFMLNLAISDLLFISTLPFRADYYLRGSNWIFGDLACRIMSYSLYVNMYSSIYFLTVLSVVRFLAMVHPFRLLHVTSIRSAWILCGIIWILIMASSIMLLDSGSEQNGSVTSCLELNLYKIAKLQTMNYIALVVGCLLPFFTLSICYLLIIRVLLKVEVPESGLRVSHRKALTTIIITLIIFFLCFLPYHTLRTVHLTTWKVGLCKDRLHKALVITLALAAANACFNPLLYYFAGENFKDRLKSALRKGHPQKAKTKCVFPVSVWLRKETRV

[27] = target: Delta-type opioid receptor (Homo sapiens) (UniProt P41143); assay: Antagonist activity at opiate delta1 receptor (unknown origin) expressed in CHO cells assessed as calcium mobilization at 3 uM; type: functional, cell-based
[28] = target: 5-hydroxytryptamine receptor 1B (Homo sapiens) (UniProt P28222); assay: Antagonist activity at 5-HT1B receptor (unknown origin) expressed in CHO cells assessed as calcium mobilization at 3 uM; type: functional, cell-based
[29] = target: 5-hydroxytryptamine receptor 2C (Homo sapiens) (UniProt P28335); assay: Antagonist activity at 5-HT2C receptor (unknown origin) expressed in CHO cells assessed as calcium mobilization at 3 uM; type: functional, cell-based
[30] = target: 5-hydroxytryptamine receptor 5A (Homo sapiens) (UniProt P47898); assay: Antagonist activity at 5-HT5a receptor (unknown origin) expressed in CHO cells assessed as calcium mobilization at 3 uM; type: functional, cell-based
5-hydroxytryptamine receptor 5A (Homo sapiens), sequence (P47898 whole entry): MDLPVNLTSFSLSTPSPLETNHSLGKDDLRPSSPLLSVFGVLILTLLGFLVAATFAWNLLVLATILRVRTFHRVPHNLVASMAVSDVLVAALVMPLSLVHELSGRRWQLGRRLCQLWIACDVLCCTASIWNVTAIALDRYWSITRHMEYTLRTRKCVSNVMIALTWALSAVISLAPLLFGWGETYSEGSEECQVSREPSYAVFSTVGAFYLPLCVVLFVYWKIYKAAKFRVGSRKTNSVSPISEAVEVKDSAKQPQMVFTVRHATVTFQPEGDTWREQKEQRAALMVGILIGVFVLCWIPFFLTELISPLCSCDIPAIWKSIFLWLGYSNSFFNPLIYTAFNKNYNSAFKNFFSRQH

[31] = target: P2Y purinoceptor 1 (Homo sapiens) (UniProt P47900); assay: Antagonist activity at P2Y1 receptor (unknown origin) expressed in CHO cells assessed as calcium mobilization at 3 uM; type: functional, cell-based
P2Y purinoceptor 1 (Homo sapiens), sequence (P47900 whole entry): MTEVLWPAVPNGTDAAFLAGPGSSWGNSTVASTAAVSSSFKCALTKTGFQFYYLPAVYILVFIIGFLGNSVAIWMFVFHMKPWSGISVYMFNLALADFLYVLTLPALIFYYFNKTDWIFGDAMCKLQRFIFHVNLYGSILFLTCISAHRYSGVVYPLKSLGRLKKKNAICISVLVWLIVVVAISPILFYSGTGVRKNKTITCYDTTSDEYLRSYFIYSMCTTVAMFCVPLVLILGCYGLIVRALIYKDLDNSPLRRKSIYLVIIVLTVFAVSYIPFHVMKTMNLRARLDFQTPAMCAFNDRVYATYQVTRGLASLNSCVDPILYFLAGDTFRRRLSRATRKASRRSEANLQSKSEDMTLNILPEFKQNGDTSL

[32] = target: Adenosine receptor A2b (Homo sapiens) (UniProt P29275); assay: Agonist activity at adenosine a2B receptor (unknown origin) expressed in CHO cells assessed as calcium mobilization at 3 uM

CCOC(=O)N1[C@@H]2CC[C@H]1C[C@H](CN1CC[C@@H](N3Cc4ccccc4NC3=O)C1)C2
Activity [1]: 81%
IC50 [2]: > 2 µM
IC50 [3]: > 2 µM
Kp [4]: 2.42
ED50 [5]: 3 mg/kg
Activity [6]: -0.25%
Activity [7]: 1.07%
Activity [8]: 0.06%
Activity [9]: -0.5%
Activity [10]: 0.08%
Activity [11]: -0.83%
Activity [12]: 0.45%
Activity [13]: -0.13%
Activity [14]: -0.03%
Activity [15]: 0.22%
Activity [16]: -1.42%
Activity [17]: -0.54%
Activity [18]: -1.12%
inhibition [19]: 2.25%
inhibition [20]: 9.18%
inhibition [21]: 27.6%
inhibition [22]: 13.2%
inhibition [23]: 4.47%
inhibition [24]: 5.59%
inhibition [25]: 0.46%
inhibition [26]: 18.8%
inhibition [27]: 20.9%
inhibition [28]: 10.5%
inhibition [29]: -5.25%
inhibition [30]: 0.91%
inhibition [31]: -8.79%
Activity [32]: -0.01%
